Like-named read-outs stand apart in the source and are kept apart here.

On to CC4RLYGFKCC4, for which the ring closure, yield after HPLC (crosslinker bond, 29-membered ring, TCEP, dichloroacetone, phosphate buffer pH 8/DMF 1:2, 1.3 mM) came out at 8%.

For the substance CC6RLYGFKCC6, the ring closure, yield after HPLC (crosslinker bond, 27-membered ring, TCEP/K2CO3, CH2I2/NEt3, H2O/THF, 3.7 mM) was 19%.

In turn, CC7RLYGFKCC7 registered a ring closure, yield after HPLC (crosslinker bond, 33-membered ring, N-(4,6-divinylpyrimidin-2-yl)-N-methylglycine, phosphate buffer pH 8/DMF, 1.6 mM) of 17%.

Substance CC8RLYGFKWC8 registered a ring closure, yield after HPLC (thioether bond, 27-membered ring, I2, H2O/MeCN, 0.46 mM) of 25%.

Regarding GXC1RLYGFKWHXC1GG, the ring closure, yield after HPLC (crosslinker bond, 39-membered ring, 3,5-diethynylbenzoic acid/CuSO4/THPTA/Na ascorbate, tBuOH/H2O 1:1, 0.48 mM) stood at 2%.

In the case of JC2RLYGFKXC2, the ring closure, yield after HPLC (triazole bond, 27-membered ring, CuSO4/Na ascorbate/DIEA, H2O, 1.3 mM) amounted to 19%.

Substance JC3RLYGFKXC3 yielded a ring closure, yield after HPLC (triazole bond, 26-membered ring, [Cp*RuCl]4 30 mol%, tBuOH/H2O 1:1, 0.61 mM) of 3%.

The values are drawn from PMC9004346, “Development of small cyclic peptides targeting the CK2α/β interface” (Chemical Communications (Cambridge, England), 2022).
